The test system of one series is whole sickle cells. Briefly: Microscopic whole cell sickling assay. The class given is cell-based, human. An excerpt:
(§1) The uptake of oxygen by haemoglobin as a function of oxygen pressure gives a measure of the oxygen affinity of the haemoglobin and is often described by the value of P50, i.e. the pressure of oxygen at which haemoglobin is 50% saturated with O2. The P50 for HbS is typically higher than that for HbA, the decreased affinity for O2 compensating for the anaemia associated with the disease by facilitating release of O2 to the tissues. An agent which would decrease the P50 of HbS would cause the deoxy-form of the molecule to be less favoured and would thus inhibit polymerisation. It is possible to correlate the degree of oxygenation of sickle erythrocytes with the ability thereof to assume sickled morphology by counting deoxygenated cells using a light microscope. An anti-sickling agent which reduces the number of sickled cells produced at low oxygen concentrations would be effective in preventing or diminishing a crisis.
There are fewer sickle cells in the presence of the dipeptide over the entire range of oxygen concentration. […] In vivo, this increased reversibility would reduce the number of circulating irreversibly sickled cells (ISC).

For another series, the system named is HbS. Briefly: Rate of polymerisation of HbS: lag time before onset of gelation after temperature jump. It is filed as biochemical, human. Particulars: different molar ratios of dipeptide:HbS, FIG. 4. As for the experimental part:
The rate of polymerisation of HbS molecules may be followed by spectrophotometrically monitoring the onset of gelation, after a temperature jump from 0° C. to 37° C., in a concentrated HbS solution. An effective anti-sickling agent should reduce the rate of polymerisation by at least ten-fold.

The next series has as its system SS cells. Briefly: Oxygen dissociation curve (P50) of sickle cells. It is filed as cell-based, human.
From the text: as §1

The nature of series [1]: Solubility in physiological buffers. The class given is physicochemical.
The subject of series [2] is sickle cell haemoglobin (HbS). Briefly: HbS gelation assay (solubility Csol of deoxygenated HbS). The class given is biochemical, human. How it is done:
A number of in vitro methods have been developed for testing the effects of compounds of the functioning of HbS molecules. One such method determines the ability of a compound to inhibit gel formation in HbS solutions. In this gelation assay, Hb solution in phosphate buffer, pH 7.0, at physiological concentrations are mixed at 0° C. with the test compound and deoxygenated by evacuation. […] The solutions are then transferred to centrifuge tubes and equilibrated at 37° C. for 30 minutes before centrifugation at 150,000 g for 1 hour. The supernatant is decanted from the gel and the Hb concentration (Csol) thereof determined spectrophotometrically. For sickle cell haemoglobin without addition of anti-sickling agent, the Csol is typically 17 gm/dl. This compares with a Csol of 23 gm/dl for haemoglobin extracted from individuals having sickle cell trait.

Consider one substance from patent publication US4376766A, “Anti-sickling agents” (G.D. Searle & Co., priority 1980, dated 1983).

Consider L-lysine-L-phenylalanine, for which, in the series with whole sickle cells, the “inhibition of whole cell sickling” value was “inhibits whole cell sickling”. In the series with whole sickle cells (compared with control), the “proportion of sickled cells becoming unsickled as oxygen is made available” value is “a greater proportion becomes unsickled”. Moreover, in the series on whole sickle cells (complete deoxygenation, in vitro dose response, FIG. 9, read-out: extra-cellular concentration reducing the number of sickled cells by 50%), the IC50 is around 5 mM. Also, the “percentage of sickled cells” value in the series on whole sickle cells (pre-incubation with peptide, different partial pressures of oxygen) was “substantially reduced”. Besides, the “pre-incubation time sufficient to protect against sickling” value in the series on whole sickle cells (zero oxygen tension, FIG. 8) amounted to 15 min. For the same substance, the “lag time before gelation (rate of polymerisation)” value in the series on HbS was “increase in the delay before gelation”. In the series on SS cells (SS cells + 25 mM peptide, 3 hours incubation at 37° C., 5:1 molar ratio extra-cellular dipeptide:intra-cellular HbS, 51 mm without peptide), the P50 is given as 41 mm of mercury. Further, the “oxygen affinity of cells” value with SS cells (incubation with peptide) was “increase in oxygen affinity”. In addition, the “solubility in physiological buffers” value in series [1] is “readily soluble”. Moreover, the “effect on Csol of HbS” value in series [2] (FIG. 2) is “increase in Csol”. Besides, the “inhibition of gelation of deoxygenated HbS solutions” value in series [2] (in vitro) is reported as “inhibit the gelation”. In series [2] (peptide:Hb tetramer ratio of 4.7:1, from linear plot of Csol versus log (peptide:Hb), HbS without agent typically 17 gm/dl), the “Csol (solubility of homozygous sickle cell haemoglobin)” value came to 23 gm/dl. Also, the “increase of HbS solubility over L-phenylalanine” value in series [2] (relative to L-phenylalanine) is reported as “four-fold”.
